The results in this text go back to patent US20060089395A1, “Nf-kb activation inhibitors” (priority 2002, published 2006).

“Also recorded” adds a separate entry of the source. Where two headings read alike, the source gives them in different places.

One data set deals with NF-κ B. The experiment in a line: Inhibitory activity of NF-κ B activation, luciferase reporter assay in HepG2 under TNF-α stimulation. Conditions: HepG2, TNF-α (40 ng/ml), 4 hours; for inhibition at 1 µg/mL / inhibition at 10 µg/mL: Homo sapiens; for inhibition at 1 µg/mL: read-out: Inhibitory Ratio of NF-κ B Activation(%) Drug Concentration 1 μg/mL; for inhibition at 10 µg/mL: read-out: Inhibitory Ratio of NF-κ B Activation(%) Drug Concentration 10 μg/mL. It counts as cell-based, human. The procedure, abridged: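 Readout is firefly luciferase luminescence, expressed as inhibition versus compound-free wells. Before this, HepG2 cells carrying a transiently transfected 5×NF-κB-site luciferase plasmid (6–24 h post-transfection) received test compound plus TNF-α (40 ng/ml) for 4 h.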

Data set [1] relates to Vascular smooth muscle cells of normal coronary artery (Cryo CASMC). The experiment in a line: Inhibitory test against proliferation of vascular smooth muscle cells of normal coronary artery under proliferation stimulation (MTS assay). Conditions: FGF and EGF stimulation, 72 hours. It counts as cell-based. Here is the method:
Vascular smooth muscle cells of normal coronary artery (Cryo CASMC) were cultured for 2 hours in the presence or absence of a test substance in DMEM medium containing 0.5% of FBS and insulin (5 u g/ml). Then, FGF and EGF were added for proliferation stimulation. The mixture was cultured for 72 hours and proliferation of the cells were measured by the MTS assay. The results aree shown in the following
In general terms: Tetrazolium dyes change colour on reduction, which living cells bring about.

Data set [2] concerns type II collagen induced arthritis. Kind of data set: Inhibitory test against type II collagen induced arthritis in mice. It counts as in vivo, Balb/c mice. Conditions: 10 mg/kg intraperitoneally once in two days; day 44; score of the control = 100%. As for the experimental part:
Balb/c mice were immunized with heterologous type II collagen and Freund's complete adjuvant by subcutaneous or intraperitoneal injection. At 21 days after the treatment, these mice were immunized again with heterologous type II collagen and Freund's incomplete adjuvant by subcutaneous or intraperitoneal injection to develop arthritis.
A test substance suspended in an appropriate diluent or the diluent alone (negative control) was administered intraperitoneally once in two days from the day of the first immunization, and as for arthritis developed after the second immunization, clinical symptoms of each ankle joint of all foots were recorded day after day as numerous scores. When the score of the control measured on day 44 after administration of 10 mg/kg of the medicament of the present invention was expresses as 100%, rates of exacerbation (%) of the clinical symptoms of arthritis were 37.5 (Compound No. 4), 76.5 (Compound No. 90), 56.2 (Compound No. 11), 64.0 (Compound No. 88), and 0.0 (Compound No. 83).

A further data set deals with PGE2. The experiment in a line: Inhibition of PGE2 production by TNFα stimulation in synovial fibroblasts derived from a rheumatoid patient (EIA). Conditions: for IC50: synovial fibroblasts, 10 ng/ml TNFα, 3 days, read-out: Inhibition against Mediator Release IC50(nM) PGE2. It counts as cell-based, human. Here is the method:
(§1) Synovial fibroblasts (Human Synoviocyte (RA-Positive), Toyobo, T4040-05) were cultured for 3 days in a medium containing 10 ng/ml of TNFα and a test compound. IL-6 and IL-8 in the supernatant were measured by the ELISA method, and PGE2 (prostaglandin E2) was measured by the EIA method.

In the next data set the test system is IL-6. Kind of data set: Inhibition of IL-6 production by TNFα stimulation in synovial fibroblasts derived from a rheumatoid patient (ELISA). Conditions: for IC50: synovial fibroblasts, 10 ng/ml TNFα, 3 days, read-out: Inhibition against Mediator Release IC50(nM) IL-6. It counts as cell-based, human. As for the experimental part: as §1
On the technique in general: An ELISA detects its analyte on a solid surface through an enzyme-linked reagent.

Another data set deals with IL-8. The experiment in a line: Inhibition of IL-8 production by TNFα stimulation in synovial fibroblasts derived from a rheumatoid patient (ELISA). Conditions: for IC50: synovial fibroblasts, 10 ng/ml TNFα, 3 days, read-out: Inhibition against Mediator Release IC50(nM) IL-8. It counts as cell-based, human. As for the experimental part: as §1
Where [3] appears, read: rheumatic patient-derived synovial fibroblasts under TNFα stimulation.

A word on the melting point: it is the temperature of the solid-liquid transition. In general, IC50 refers to the concentration that inhibits the measured activity by half.

`O=C(Nc1cc(C(F)(F)F)cc(C(F)(F)F)c1)c1cc(C(=O)N2CCC(Cc3ccccc3)CC2)ccc1O` [Compound No. 40, N-[3,5-Bis(trifluoromethyl)phenyl]-2-hydroxy-5-(4-benzylpiperidine-1-carbonyl)benzamide] came in with a melting point of 179 to 180 °C. The inhibition at 1 µg/mL with NF-κ B (1 μg/mL) worked out at 44.9%. Also, the inhibition at 10 µg/mL in the data set with NF-κ B (10 μg/mL) was 96%.
`O=C(Nc1cc(C(F)(F)F)ccc1Cl)c1cc(Br)ccc1O` [Compound No. 90]: the “Inhibitory Ratio of Proliferation(%) Compound Concentration 250 nM” value in data set [1] was determined as 89.5%. For the same compound, in data set [1], the “Inhibitory Ratio of Proliferation(%) Compound Concentration 500 nM” value was found to be 95.2%. Also, the “rates of exacerbation (%) of the clinical symptoms of arthritis” value in data set [2] amounted to 76.5%. The “inhibition of the production of PGE2 (in words)” value with PGE2 (setting [3]) is “potently inhibited; also recorded: strongly inhibited”. In addition, the IC50 in the data set on PGE2 is 38 nM; in the data set on IL-6, 24 nM; in the data set on IL-8, 373 nM. The “inhibition of the production of IL-6 (in words)” value with IL-6 (setting [3]) was “potently inhibited; also recorded: strongly inhibited”. In addition, the “inhibition of the production of IL-8 (in words)” value with IL-8 (setting [3]) is “potently inhibited; also recorded: strongly inhibited”. Further, the “Inhibitory Ratio of NF-κ B Activation(%) Drug Concentration 1 μg/mL” value in the data set with NF-κ B (1 μg/mL) was 88.9%. Further, the “Inhibitory Ratio of NF-κ B Activation(%) Drug Concentration 10 μg/mL” value with NF-κ B (10 μg/mL) is recorded as 94.1%.
As to `CC(=O)Oc1ccccc1C(=O)Nc1cc(Cl)cc(Cl)c1` [Compound No. 120, 2-acetoxy-N-(3,5-dichlorophenyl)benzamide], the melting point lay in the range of 218 to 219 °C. Besides, the inhibition at 1 µg/mL with NF-κ B (1 μg/mL) was determined as 88.6%. Also, in the data set with NF-κ B (10 μg/mL), the inhibition at 10 µg/mL came to 97.5%.
Regarding `CC(C)(C)c1ccc(O)c(C(=O)Nc2cc(C(F)(F)F)cc(C(F)(F)F)c2)c1` [compound 11, N-[3,5-Bis(trifluoromethyl)phenyl]-5-[(1,1-dimethyl)ethyl]-2-hydroxybenzamide], the “Inhibitory Ratio of Proliferation(%) Compound Concentration 250 nM” value in data set [1] was found to be 86.7%. In addition, the “Inhibitory Ratio of Proliferation(%) Compound Concentration 500 nM” value in data set [1] came out at 91.4%. Moreover, the “rates of exacerbation (%) of the clinical symptoms of arthritis” value in data set [2] was 56.2%. The IC50 in the data set on PGE2 (Homo sapiens, Fibroblast, 72 h) was determined as 389 nM; in the data set with IL-6 (Homo sapiens, Fibroblast, 72 h), 247 nM; in the data set with IL-8 (Homo sapiens, Fibroblast, 72 h), 377 nM. For the same compound, in the data set with NF-κ B (1 μg/mL), the inhibition at 1 µg/mL was found to be 92.9%. The inhibition at 10 µg/mL with NF-κ B (10 μg/mL) was determined as 98.3%.
